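The compound was tested at five concentrations on cells cultured in 96-well plates, with a 48-hour exposure period. GI50: concentration for 50% inhibition of growth.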 Active and inactive are the calls of the source. Rule as the data show it: active = GI50 up to about 1.1 µM and inactive = higher.
Experiments:
Assay in all cases: DTP human tumour cell line panel, 48 h
IGROV-1 = tested on: IGROV-1
SF-539 = tested on: SF-539
NCI-H522 = tested on: NCI-H522
COLO 205 = tested on: COLO 205
OVCAR-4 = tested on: OVCAR-4
HCC 2998 = tested on: HCC 2998
SNB-19 = tested on: SNB-19
SF-268 = tested on: SF-268
LOX IMVI = tested on: LOX IMVI
SF-295 = tested on: SF-295
HOP-92 = tested on: HOP-92
U-251 = tested on: U-251
UACC-257 = tested on: UACC-257
SK-MEL-5 = tested on: SK-MEL-5
UO-31 = tested on: UO-31
CCRF-CEM = tested on: CCRF-CEM
RXF 393 = tested on: RXF 393
CAKI-1 = tested on: CAKI-1
Malme-3M = tested on: Malme-3M
NCI-H226 = tested on: NCI-H226

| Compound | GI50 (IGROV-1) | GI50 (SF-539) | GI50 (NCI-H522) | GI50 (COLO 205) | GI50 (OVCAR-4) | GI50 (HCC 2998) | GI50 (SNB-19) | GI50 (SF-268) | GI50 (LOX IMVI) | GI50 (SF-295) | GI50 (HOP-92) | GI50 (U-251) | GI50 (UACC-257) | GI50 (SK-MEL-5) | GI50 (UO-31) | GI50 (CCRF-CEM) | GI50 (RXF 393) | GI50 (CAKI-1) | GI50 (Malme-3M) | GI50 (NCI-H226) |
| --- | --- | --- | --- | --- | --- | --- | --- | --- | --- | --- | --- | --- | --- | --- | --- | --- | --- | --- | --- | --- |
| CCOc1ncn(-c2ccc(NC(=S)Nc3ncccn3)cc2)n1 | 26.5 µM (inactive) | 15.4 µM (inactive) | 17.4 µM (inactive) | 29.5 µM (inactive) | 21.8 µM (inactive) | 25.9 µM (inactive) | 54 µM (inactive) | > 100 µM (inactive) | 17.6 µM (inactive) | 97.5 µM (inactive) | 33.5 µM (inactive) | > 100 µM (inactive) | 28.9 µM (inactive) | 18.2 µM (inactive) | 18.6 µM (inactive) | 20 µM (inactive) |  |  |  |  |
| CCN1c2ccccc2-n2c(C)nnc2-c2c(-c3ccccc3)n[nH]c21 | 21.4 µM (inactive) | 43.4 µM (inactive) | 2.25 µM (inactive) | 32.4 µM (inactive) | 22 µM (inactive) |  | 42.9 µM (inactive) | 35.8 µM (inactive) | 23.1 µM (inactive) | 31 µM (inactive) | 50.7 µM (inactive) | 18.5 µM (inactive) | > 100 µM (inactive) | 14.5 µM (inactive) | 44.8 µM (inactive) | 17.5 µM (inactive) | 44.5 µM (inactive) | > 10 µM (inactive) |  |  |
| CCOC(=O)Cc1cc(OC)c(OC)cc1/C(Cl)=C(\C=O)c1ccc(OC)c(OC)c1 | 28.6 µM (inactive) |  |  | 21.8 µM (inactive) | 18.5 µM (inactive) |  | 34.4 µM (inactive) |  | 17.9 µM (inactive) | 15.2 µM (inactive) | 1 µM (active) | 17.5 µM (inactive) | 18.9 µM (inactive) | 17.1 µM (inactive) | 26.1 µM (inactive) | > 10 µM (inactive) | 57.8 µM (inactive) | 29.4 µM (inactive) | 27.4 µM (inactive) |  |
| CCc1c(-c2ccc(OC)cc2)oc(OC)c(C)c1=O | > 100 µM (inactive) | > 100 µM (inactive) | 47.4 µM (inactive) | > 100 µM (inactive) | 85.9 µM (inactive) | > 100 µM (inactive) | > 100 µM (inactive) | > 100 µM (inactive) | 63.7 µM (inactive) | > 100 µM (inactive) | 97.1 µM (inactive) | > 100 µM (inactive) | 65.6 µM (inactive) | 32.2 µM (inactive) | 64.6 µM (inactive) | 41 µM (inactive) | > 100 µM (inactive) | 99.1 µM (inactive) |  |  |
| CCP(=O)(CC)C(Cl)(Cl)C(O)C(Cl)(Cl)Cl (centres undefined) | > 100 µM (inactive) |  | > 100 µM (inactive) | > 100 µM (inactive) | > 100 µM (inactive) | > 100 µM (inactive) | > 100 µM (inactive) |  | > 100 µM (inactive) | > 100 µM (inactive) | > 100 µM (inactive) | > 100 µM (inactive) | > 100 µM (inactive) | > 100 µM (inactive) | > 100 µM (inactive) | > 100 µM (inactive) |  | > 100 µM (inactive) |  | > 100 µM (inactive) |
| COc1ccc(-c2cc(O)c3c(C)ccnc3n2)cc1 | 5.64 µM (inactive) | 17.4 µM (inactive) | 8.13 µM (inactive) | 4.26 µM (inactive) | 24.8 µM (inactive) | 22.5 µM (inactive) | 36.8 µM (inactive) | 15.1 µM (inactive) | 14.3 µM (inactive) |  |  |  | 33.7 µM (inactive) |  | 27.8 µM (inactive) | 17.8 µM (inactive) | 19.9 µM (inactive) | 33.8 µM (inactive) | 10.8 µM (inactive) | 33.5 µM (inactive) |
| Cc1nc(Cl)c(C)c(Cl)n1 | 15.9 µM (inactive) | > 100 µM (inactive) | < 0.01 µM (active) | > 100 µM (inactive) | 52.7 µM (inactive) | 99.1 µM (inactive) | > 100 µM (inactive) | > 100 µM (inactive) | 33 µM (inactive) | > 100 µM (inactive) |  | > 100 µM (inactive) | > 100 µM (inactive) | > 59 µM (inactive) |  | 18.7 µM (inactive) | > 100 µM (inactive) | 0.0216 µM (active) | > 100 µM (inactive) | > 100 µM (inactive) |
| CC1=Nc2c(N)nc(N)nc2N(C)C1 | > 100 µM (inactive) | > 100 µM (inactive) |  | > 100 µM (inactive) |  |  | > 100 µM (inactive) | > 100 µM (inactive) |  | > 100 µM (inactive) |  | > 100 µM (inactive) | > 100 µM (inactive) | > 100 µM (inactive) | 74.3 µM (inactive) | > 100 µM (inactive) | > 100 µM (inactive) | > 100 µM (inactive) | > 100 µM (inactive) | > 100 µM (inactive) |
| C/C(=C/CC[C@](C)(OC1OC(CO)C(O)C(O)C1O)[C@H]1CC[C@]2(C)[C@@H]1CC[C@@H]1[C@@]3(C)CC[C@H](O)C(C)(C)[C@@H]3C[C@H](O)[C@]12CO)CO (some centres undefined) | > 100 µM (inactive) | > 100 µM (inactive) | > 100 µM (inactive) | > 100 µM (inactive) | > 100 µM (inactive) |  | > 100 µM (inactive) | > 100 µM (inactive) | > 100 µM (inactive) | > 100 µM (inactive) | > 100 µM (inactive) | > 100 µM (inactive) | > 100 µM (inactive) | > 100 µM (inactive) | > 100 µM (inactive) | > 100 µM (inactive) | > 100 µM (inactive) | > 100 µM (inactive) | > 100 µM (inactive) | > 100 µM (inactive) |
| O=C(N/C(=C\c1ccccc1[N+](=O)[O-])c1nc2ccccc2[nH]1)c1ccccc1 | > 100 µM (inactive) |  | 56.8 µM (inactive) | > 100 µM (inactive) | > 100 µM (inactive) | > 100 µM (inactive) | > 100 µM (inactive) |  |  | 55.8 µM (inactive) | 40.1 µM (inactive) | > 100 µM (inactive) |  | 72.8 µM (inactive) | 45.8 µM (inactive) | 57.9 µM (inactive) | 56.1 µM (inactive) | > 100 µM (inactive) | > 100 µM (inactive) |  |
| CC(C)c1ccc(/C=C2\CSCC3=C2N=C2SCC(=O)N2C3c2ccc(C(C)C)cc2)cc1 (centres undefined) | > 100 µM (inactive) | > 100 µM (inactive) |  | > 100 µM (inactive) | > 100 µM (inactive) | > 100 µM (inactive) |  | > 100 µM (inactive) | > 100 µM (inactive) | > 100 µM (inactive) | > 100 µM (inactive) | 64.3 µM (inactive) | > 100 µM (inactive) | > 100 µM (inactive) | 40.4 µM (inactive) | 68.1 µM (inactive) |  | > 100 µM (inactive) | 96.4 µM (inactive) | > 100 µM (inactive) |
| CC(=O)c1c(-c2ccco2)c(C#N)c(=S)n(C2OC(CO)C(O)C(O)C2O)c1-c1ccccc1 (centres undefined) | > 100 µM (inactive) | 45.2 µM (inactive) |  | > 100 µM (inactive) | 73.3 µM (inactive) |  | 22.4 µM (inactive) | 61.2 µM (inactive) | 36.2 µM (inactive) | 52.7 µM (inactive) |  | 28.4 µM (inactive) | > 100 µM (inactive) | 35.7 µM (inactive) | 51.2 µM (inactive) | 43.3 µM (inactive) | 37 µM (inactive) | > 100 µM (inactive) | 63.2 µM (inactive) |  |
| CC(Sc1ccccc1)C(CO)(CO)[N+](=O)[O-] (centres undefined) | 15.6 µM (inactive) | 16.7 µM (inactive) | 13.5 µM (inactive) |  | 17.8 µM (inactive) | 17.2 µM (inactive) | 21.4 µM (inactive) | 22.8 µM (inactive) | 7.85 µM (inactive) | 14.7 µM (inactive) |  | 13.3 µM (inactive) | 14 µM (inactive) | 12.7 µM (inactive) | 10.6 µM (inactive) | 1.85 µM (inactive) | 16.4 µM (inactive) | 17.9 µM (inactive) | 18.9 µM (inactive) | 16.5 µM (inactive) |
| CC1=N/C(=C\c2ccc(N)cc2)C(=O)N1Nc1nnc(NN2C(=O)/C(=C/c3ccc(N)cc3)N=C2C)c2ccccc12 | 85.9 µM (inactive) | 24.8 µM (inactive) | 21.3 µM (inactive) | 83.6 µM (inactive) | 33 µM (inactive) |  | 33 µM (inactive) | 55 µM (inactive) | 41.9 µM (inactive) | 26.6 µM (inactive) | > 100 µM (inactive) | 45.4 µM (inactive) | > 100 µM (inactive) | 45.2 µM (inactive) |  | 18.6 µM (inactive) | 22.5 µM (inactive) |  |  | 14.3 µM (inactive) |
| CCOC(=O)NC(Nc1ncccn1)(C(F)(F)F)C(F)(F)F |  | > 100 µM (inactive) | > 100 µM (inactive) |  |  | > 100 µM (inactive) | > 100 µM (inactive) | > 100 µM (inactive) | > 100 µM (inactive) |  |  | > 100 µM (inactive) | > 100 µM (inactive) |  | > 100 µM (inactive) | > 100 µM (inactive) | > 100 µM (inactive) |  | > 100 µM (inactive) | > 100 µM (inactive) |
| O=C1O/C(=C\c2ccc(O)c(Br)c2)C(c2ccc(O)c(Cl)c2)=C1Br | 21.9 µM (inactive) | 18.6 µM (inactive) | 14.4 µM (inactive) | 18.1 µM (inactive) | 11.5 µM (inactive) | 3.65 µM (inactive) | 18.3 µM (inactive) | 14.3 µM (inactive) | 44.6 µM (inactive) | 16.1 µM (inactive) | 15.4 µM (inactive) | 13.5 µM (inactive) | 15.8 µM (inactive) | 14.8 µM (inactive) | 25.7 µM (inactive) | 12.3 µM (inactive) | 17.2 µM (inactive) | 27 µM (inactive) | 17.9 µM (inactive) |  |

— ChEMBL document CHEMBL1201862, “PubChem BioAssay data set” (2004)
